Test results published in paper PMC12571268, “Functional expression of a Mo-dependent formate dehydrogenase in Escherichia coli under aerobic conditions” (PLOS One, 2025).

Molecular target: T1, TsFDH (formate dehydrogenase of Thiobacillus sp. KNK65MA) (Thiobacillus sp. KNK65MA, UniProt Q76EB7)
T1 construct: gene fdh65MA; full-length synthetic gene codon-optimized for E. coli on pZE plasmid pGEN1395 in E. coli delta-lpd; clarified lysate; metal-independent
T1 sequence (Q76EB7 1-401): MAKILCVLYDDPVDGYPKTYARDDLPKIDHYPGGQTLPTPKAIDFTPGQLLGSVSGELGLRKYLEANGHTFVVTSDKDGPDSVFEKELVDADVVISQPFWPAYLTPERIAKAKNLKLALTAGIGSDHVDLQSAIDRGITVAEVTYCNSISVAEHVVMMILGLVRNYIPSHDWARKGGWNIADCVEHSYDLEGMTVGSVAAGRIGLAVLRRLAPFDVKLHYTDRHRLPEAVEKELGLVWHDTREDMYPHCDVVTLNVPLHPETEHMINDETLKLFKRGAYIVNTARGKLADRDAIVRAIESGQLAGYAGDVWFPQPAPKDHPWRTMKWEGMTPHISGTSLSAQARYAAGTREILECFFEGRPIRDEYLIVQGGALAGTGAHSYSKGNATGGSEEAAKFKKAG
Assay: NADH formation at […] nm in clarified lysate, blank without formate subtracted
Assay type: biochemical
Settings: 100 mM formate, 5 mM NAD+, 100 mM Tris pH 9.0; plasmid-free strains as control

O=CO [formate]
NADH formation at 340 nm in clarified lysate, blank without formate subtracted: lysates of the strains containing the FDH from Thiobacillus yielded higher specific activity
